Several values for one entry are separate records, joined by “and”; a condition that tells them apart may be missing. Identical values can stand only once. Entries after “also recorded” stand apart in the source; their conditions may differ. Like-named read-outs stand apart in the source and are kept apart here. Marks after values point to notes of the source that are not given here. Some results are limits rather than exact numbers.

Data set [1] deals with T1, 5-HT1A receptor (Homo sapiens, UniProt P08908).
T1 construct: host or cells: CHO-K1 (co-expressing Ga15)
T1 sequence (P08908 1-422): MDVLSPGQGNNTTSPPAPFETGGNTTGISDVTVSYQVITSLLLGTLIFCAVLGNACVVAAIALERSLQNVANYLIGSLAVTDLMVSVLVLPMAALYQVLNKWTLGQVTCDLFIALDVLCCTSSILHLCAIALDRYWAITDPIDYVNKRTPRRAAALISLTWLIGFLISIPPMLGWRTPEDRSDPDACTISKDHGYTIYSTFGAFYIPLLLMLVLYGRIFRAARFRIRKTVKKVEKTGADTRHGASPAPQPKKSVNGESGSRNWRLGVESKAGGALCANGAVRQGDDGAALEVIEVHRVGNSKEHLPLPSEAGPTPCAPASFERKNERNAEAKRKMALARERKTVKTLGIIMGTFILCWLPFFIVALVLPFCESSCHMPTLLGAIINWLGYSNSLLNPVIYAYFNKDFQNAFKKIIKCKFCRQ
In words: cAMP-Glo assay of 5-HT1A receptor modulation, +5-HT1A (CHO-K1/5-HT1A/Ga15) vs -5-HT1A (CHO-K1/Ga15) cells. Type of data set: cell-based. More on the design: dose or concentration left out as unconfirmed. The settings on record: +5-HT1A vs -5-HT1A cell cultures stimulated with forskolin, increasing ligand concentrations.

In data set [2] the target is T2, neuronal 5-HT2A receptor (5-HT2AR) (Mus musculus, UniProt P35363).
T2 construct: HTR was measured in mice treated with a control and test compounds; tissue Charles River; host or cells: live C57BL/6-Elite mice (neuronal receptor)
In words: Drug-induced Head Twitch Response (HTR) in mice. It counts as in vivo, C57BL/6-Elite mice. The settings on record: 1 mg/kg i.p., 15-to-30-minute window post-drug, relative to vehicle-treated control mice.

The target in data set [3] is GABAA (Homo sapiens, UniProt P14867+P18507+P47870). Type of data set: cell-based. The following applies: ion channel.
A short description of data set [4]: Mouse pharmacokinetic (PK) study, parent compound and psilocin metabolite in plasma. The settings on record: for Detectability of administered compound in plasma, any animals at any dose: i.v. and oral doses. It counts as in vivo, C57Bl/6 mice. The text has this:
(§1) Briefly, the procedure was as follows. […] 19, 2022.

A short description of data set [5]: LC-MS measurement of dosing solution concentrations (nominal vs measured). It counts as physicochemical. The protocol:
as §1
Pharmacokinetic (PK) evaluations were performed in the same manner as described in Example 1, except compound C(IV) was used in place of compound C(V). […] Thus, only psilocin PK analysis was performed. […] Table 46 summarizes these “measured” concentrations along with corresponding “nominal” concentrations for each dosing solution. Results for psilocin PK following C(IV) administration are found in Tables 47A-47B (0.293 mg/kg IV dose), Tables 48A-48B (0.275 mg/kg oral dose), Tables 49A-49B (0.789 mg/kg oral dose), Tables 50A-50B (2.52 mg/kg oral dose), Table 51 (comparative summary for IV data), Table 52 (comparative summary for oral data), Table 53A (psilocin exposure) and FIGS. 10H (i) and 10H (ii).

Data set [6] deals with 5-HT2A receptor (Homo sapiens, UniProt P28223). In words: [3H]ketanserin competition binding assay (SPA) at 5-HT2A. The following applies: 1 nM [3H]ketanserin, FIGS. 3E, 3F.
Setting [7] is: mouse, prodrug 1 mg/kg i.v., 8 h, individual animals.
[8] abbreviates: mouse, prodrug 1 mg/kg oral, 8 h, individual animals.
Setting [9] is: mouse, prodrug 1 mg/kg oral, 24 h, individual animals.
Where [10] appears, read: mouse, prodrug 3 mg/kg oral, 24 h, individual animals.
Setting [11] is: mouse, prodrug 10 mg/kg oral, 24 h, individual animals.

T2 sequence (P35363 whole entry): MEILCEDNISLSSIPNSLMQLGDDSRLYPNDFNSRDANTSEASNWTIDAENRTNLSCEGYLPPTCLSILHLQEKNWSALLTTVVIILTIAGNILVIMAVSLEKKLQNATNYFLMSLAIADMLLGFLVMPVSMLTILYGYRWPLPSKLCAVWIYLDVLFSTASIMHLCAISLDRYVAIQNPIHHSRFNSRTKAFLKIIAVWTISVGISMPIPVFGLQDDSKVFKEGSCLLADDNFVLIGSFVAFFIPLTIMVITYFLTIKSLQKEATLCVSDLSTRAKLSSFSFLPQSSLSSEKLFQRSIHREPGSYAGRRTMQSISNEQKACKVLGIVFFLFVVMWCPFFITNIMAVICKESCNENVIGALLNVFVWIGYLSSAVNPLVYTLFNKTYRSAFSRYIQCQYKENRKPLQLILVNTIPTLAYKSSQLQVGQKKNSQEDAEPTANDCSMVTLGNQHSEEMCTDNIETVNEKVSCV
Sequence of GABAA (P14867 28-456): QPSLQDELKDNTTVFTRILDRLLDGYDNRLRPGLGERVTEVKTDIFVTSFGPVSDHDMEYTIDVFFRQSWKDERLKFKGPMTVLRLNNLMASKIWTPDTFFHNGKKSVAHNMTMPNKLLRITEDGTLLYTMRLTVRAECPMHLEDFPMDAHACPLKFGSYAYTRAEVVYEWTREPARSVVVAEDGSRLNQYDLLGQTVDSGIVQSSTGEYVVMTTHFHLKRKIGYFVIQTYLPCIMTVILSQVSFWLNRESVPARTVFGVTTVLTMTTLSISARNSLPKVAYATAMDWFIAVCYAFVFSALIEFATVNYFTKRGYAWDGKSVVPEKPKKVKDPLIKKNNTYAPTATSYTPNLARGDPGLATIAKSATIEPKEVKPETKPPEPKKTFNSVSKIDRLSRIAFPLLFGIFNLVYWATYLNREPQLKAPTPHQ
Sequence of GABAA (P47870 26-512): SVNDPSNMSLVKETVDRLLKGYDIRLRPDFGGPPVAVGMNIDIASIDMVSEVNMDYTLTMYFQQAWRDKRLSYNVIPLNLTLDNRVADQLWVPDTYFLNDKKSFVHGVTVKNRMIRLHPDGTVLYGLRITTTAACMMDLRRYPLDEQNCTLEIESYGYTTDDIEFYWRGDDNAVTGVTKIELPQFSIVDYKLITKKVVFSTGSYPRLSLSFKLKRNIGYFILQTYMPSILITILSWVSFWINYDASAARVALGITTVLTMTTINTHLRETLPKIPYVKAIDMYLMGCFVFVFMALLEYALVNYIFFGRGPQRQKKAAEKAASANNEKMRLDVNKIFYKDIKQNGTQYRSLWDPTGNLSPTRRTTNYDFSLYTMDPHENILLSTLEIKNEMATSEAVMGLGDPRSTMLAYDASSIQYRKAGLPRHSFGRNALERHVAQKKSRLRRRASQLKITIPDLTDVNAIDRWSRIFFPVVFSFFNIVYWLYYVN
Sequence of GABAA (P18507 40-475): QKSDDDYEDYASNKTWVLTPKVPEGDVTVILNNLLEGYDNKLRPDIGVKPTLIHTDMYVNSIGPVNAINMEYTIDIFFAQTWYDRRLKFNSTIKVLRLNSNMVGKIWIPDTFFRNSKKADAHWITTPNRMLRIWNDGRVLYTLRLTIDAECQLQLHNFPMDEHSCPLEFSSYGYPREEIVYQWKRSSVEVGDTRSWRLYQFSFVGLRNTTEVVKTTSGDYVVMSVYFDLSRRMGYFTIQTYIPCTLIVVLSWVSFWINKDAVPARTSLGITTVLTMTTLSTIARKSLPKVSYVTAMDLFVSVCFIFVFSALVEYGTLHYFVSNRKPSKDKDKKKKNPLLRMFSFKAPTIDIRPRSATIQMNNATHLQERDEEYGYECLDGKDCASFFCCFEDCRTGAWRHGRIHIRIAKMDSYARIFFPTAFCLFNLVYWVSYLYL
Sequence of 5-HT2A receptor (P28223 whole entry): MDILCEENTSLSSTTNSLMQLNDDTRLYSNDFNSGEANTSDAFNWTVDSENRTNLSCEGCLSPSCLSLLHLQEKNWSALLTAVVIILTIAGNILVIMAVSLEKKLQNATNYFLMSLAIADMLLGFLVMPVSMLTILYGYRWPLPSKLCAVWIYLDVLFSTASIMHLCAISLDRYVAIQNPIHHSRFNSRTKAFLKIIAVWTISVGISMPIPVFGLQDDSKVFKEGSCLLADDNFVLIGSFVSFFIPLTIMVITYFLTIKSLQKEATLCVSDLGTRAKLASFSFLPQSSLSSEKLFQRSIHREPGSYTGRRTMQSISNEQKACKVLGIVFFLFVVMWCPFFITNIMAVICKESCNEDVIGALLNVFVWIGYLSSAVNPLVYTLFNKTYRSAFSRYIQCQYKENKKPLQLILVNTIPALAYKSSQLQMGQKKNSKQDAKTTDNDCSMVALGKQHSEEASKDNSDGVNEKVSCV

In the case of `COCCOCCOCC(=O)Oc1cccc2[nH]cc(CCN(C)C)c12` [C(III)], the “5-HT1A receptor modulation (reduction of cAMP levels)” value in data set [1] was “significant receptor modulation”. For the same compound, the “Incidences of Head Twitch Response (HTR)” value in data set [2] is listed as “Elevated incidences of HTR”.

Consider `CN(C)CCc1c[nH]c2cccc(OC(=O)CC3CC3)c12` [C(IV)], for which the IC50 – broadly, the midpoint of a concentration-inhibition curve – in data set [3] (blocker (BL)) is > 100 µM. Also, the EC50 (in general, the concentration needed to bring the measured effect to its halfway point) in data set [3] (opener (OP)) was > 100 µM. Besides, in data set [1], the “5-HT1A receptor modulation (reduction of cAMP levels)” value is reported as “significant receptor modulation”. Moreover, the “Incidences of Head Twitch Response (HTR)” value in data set [2] was “Elevated incidences of HTR”. Further, the “Plasma concentration of psilocin” value in data set [4] (0.275 mg/kg oral C(IV), 24 h, animals M64-M66) was “No Peak”; in data set [4] (0.789 mg/kg oral C(IV), 24 h, animals M67-M69), “No Peak”. Besides, the “Detectability of administered compound in plasma, any animals at any dose” value in data set [4] (mouse) is recorded as “not detectable in any animals at any dose”. Further, the “Psilocin, measured, in C(IV) residual dosing solution” value in data set [5] (C(IV) nominal 0.1 mg/mL, not accurate, peak below LLOQ, for reference only) is reported as 0.00174^d mg/mL; in data set [5] (C(IV) nominal 0.2 mg/mL), 0.00324 mg/mL; in data set [5] (C(IV) nominal 0.3 mg/mL) it was 0.00474 mg/mL; in data set [5] (C(IV) nominal 1 mg/mL), 0.0234 mg/mL. The “Stability in dosing solutions” value in data set [5] (PK dosing solutions) was “compound instability in dosing solutions”. The “C(IV), measured, residual dosing solution concentration” value is listed as 0.0275 mg/mL in data set [5] (nominal 0.1 mg/mL), 0.0586 mg/mL in data set [5] (nominal 0.2 mg/mL), 0.0789 mg/mL in data set [5] (nominal 0.3 mg/mL) and 0.252 mg/mL in data set [5] (nominal 1 mg/mL).

For `COc1ccc(C(=O)Oc2cccc3[nH]cc(CCN(C)C)c23)cc1` [C(V)], the IC50 in data set [3] (blocker (BL) mode) was > 100 µM. Also, in data set [3] (opener (OP) mode), the EC50 is > 100 µM. For the same compound, the “5-HT1A receptor modulation (reduction of cAMP levels)” value in data set [1] was “mild receptor modulation at higher ligand concentrations”. For the same compound, the “Incidences of Head Twitch Response (HTR)” value in data set [2] is given as “Elevated incidences of HTR”. Further, the “Detectability of administered compound in plasma, i.v. administered animals” value in data set [4] (mouse, 1 mg/kg i.v.) is reported as “only detectable in i.v. administered animals”. In addition, in data set [4] (mouse, oral, any dose (1, 3, 10 mg/kg)), the “Detectability of administered compound in plasma, orally administered animals” value was “not detectable in orally administered animals at any dose”. Further, the “Plasma concentration of administered (parent) compound” value in data set [4] (mouse, 1 mg/kg i.v., 5 min, individual animals, 1 mg/kg) was 6.53 ng/mL and 53.8 ng/mL and 13.5 ng/mL; in data set [4] (mouse, 1 mg/kg i.v., 5 min, mean ± SD), 24.6 ± 25.5 ng/mL; in data set [4] (mouse, 1 mg/kg i.v., 0.25 h, individual animals, 1 mg/kg), “BLQ (BLQ denotes below the lower limit of quantitation (0.5 ng/mL).)”; in data set [4] (mouse, 1 mg/kg i.v., 0.25 h, mean ± SD), 0.834 (n = 1) ng/mL; in data set [4] (mouse, 1 mg/kg i.v., 0.5 h, individual animals, 1 mg/kg), “BLQ (BLQ denotes below the lower limit of quantitation (0.5 ng/mL).); also recorded: No Peak”; in data set [4] (mouse, 1 mg/kg i.v., 1 h, individual animals) it was “No Peak”. In addition, the “Plasma concentration of administered (parent) compound” value in data set [4] (mouse, 1 mg/kg i.v., 2 h, individual animals) is “No Peak”; in data set [4] (mouse, 1 mg/kg i.v., 4 h, individual animals), “No Peak”; in data set [4] (mouse, 1 mg/kg i.v., 6 h, individual animals), “No Peak”; in data set [4] (mouse, 1 mg/kg i.v., 8 h, individual animals), “No Peak”. In addition, the “Cmax of administered (parent) compound” value in data set [4] (mouse, 1 mg/kg i.v., individual animals, 1 mg/kg) is 6.53 ng/mL and 53.8 ng/mL and 13.5 ng/mL; in data set [4] (mouse, 1 mg/kg i.v., mean ± SD) it was 24.6 ± 25.5 ng/mL. Moreover, the “Plasma concentration of psilocin” value in data set [4] (setting [7]) is recorded as “BLQ (BLQ denotes below the lower limit of quantitation (0.2 ng/ml).)”; in data set [4] (setting [8]) it was “BLQ (BLQ denotes below the lower limit of quantitation (0.2 ng/ml).)”; in data set [4] (setting [9]), “No Peak; also recorded: BLQ (BLQ denotes below the lower limit of quantitation (0.2 ng/ml).)”; in data set [4] (setting [10]), “No Peak; also recorded: BLQ (BLQ denotes below the lower limit of quantitation (0.2 ng/ml).)”; in data set [4] (setting [11]) it was “BLQ (BLQ denotes below the lower limit of quantitation (0.2 ng/ml).); also recorded: No Peak”. For the same compound, the Stability in plasma result in data set [4] (plasma, LC-MS bioanalysis of the mouse PK study) is “unstable in plasma; also recorded: ^aA freshly spiked calibration curve was used for quantification C(V) is not stable in plasma; concentrations are not considered accurate; also recorded: ^aDue to C(V) instability in plasma, the PK parameter estimates are not considered accurate”.

In the case of `CN(C)CCc1c[nH]c2cccc(OC(=O)c3c(F)c(F)c(F)c(F)c3F)c12` [C(VI)], the IC50 in data set [3] (blocker (BL)) was > 100 µM. In addition, the EC50 in data set [3] (opener (OP)) was > 100 µM. Besides, the “5-HT1A receptor modulation (reduction of cAMP levels)” value in data set [1] was “no receptor modulation at higher ligand concentrations”. In data set [2], the “Incidences of Head Twitch Response (HTR)” value was “Elevated incidences of HTR”. Besides, in data set [4] (mouse), the “Detectability of administered compound in plasma, any animals at any dose” value is given as “not detectable in any animals at any dose”. Besides, the “Plasma concentration of psilocin” value is given as “BLQ (BLQ denotes below the lower limit of quantitation (0.2 ng/ml).)” in data set [4] (setting [7]); “BLQ (BLQ denotes below the lower limit of quantitation (0.2 ng/ml).)” in data set [4] (setting [8]); “BLQ (BLQ denotes below the lower limit of quantitation (0.2 ng/ml).); also recorded: No Peak” in data set [4] (setting [9]); “BLQ (BLQ denotes below the lower limit of quantitation (0.2 ng/ml).); also recorded: No Peak” in data set [4] (setting [10]); “BLQ (BLQ denotes below the lower limit of quantitation (0.2 ng/ml).)” in data set [4] (setting [11]).

Regarding `CN(C)CCc1c[nH]c2cccc(OC(=O)c3cccc(C(=O)Oc4cccc5[nH]cc(CCN(C)C)c45)c3)c12` [C(VII)], in data set [1], the “5-HT1A receptor modulation (reduction of cAMP levels)” value is “no significant receptor modulation”. The “Incidences of Head Twitch Response (HTR)” value in data set [2] is reported as “Elevated incidences of HTR”.

For the compound `COC(=O)c1cccc(C(=O)Oc2cccc3[nH]cc(CCN(C)C)c23)c1` [C(XLIII)], in data set [1], the “5-HT1A receptor modulation (reduction of cAMP levels)” value is “receptor modulation at higher ligand concentrations”.

Regarding `CN(C)CCc1c[nH]c2cccc(O)c12` [psilocin, reference compound], the “Competition binding vs [3H]ketanserin at 5-HT2A (control outcome)” value in data set [6] is on record as “binding”. The “5-HT1A receptor modulation (reduction of cAMP levels)” value in data set [1] is given as “reduction in cAMP levels”.

With `NCCc1c[nH]c2ccc(O)cc12` [serotonin, reference compound], the “5-HT1A receptor modulation (reduction of cAMP levels)” value in data set [1] was “reduction in cAMP levels”.

For the compound `N[C@@H](Cc1c[nH]c2ccccc12)C(=O)O` [tryptophan, reference compound], in data set [6], the “Competition binding vs [3H]ketanserin at 5-HT2A (control outcome)” value is reported as “no binding”. In addition, the “5-HT1A receptor modulation (reduction of cAMP levels)” value in data set [1] is reported as “no reduction in cellular cAMP levels”.
